Reference: US8084621B2, “3-Pyrrolo[b]cyclohexylene-2-dihydroindolinone derivatives and uses thereof” (Jiangsu Simcere Pharmaceutical R&D Co. Ltd., priority 2006, dated 2011)

Legend:
Type in all cases: cell-based
[1] = test system: Human Non-Small Cell Lung Cancer Cell Line (A549); experiment: Tumor cell proliferation assay (MTT), A549; conditions: for inhibition at 10 µM: concentration of 10^−5 mol/L, preliminary screening, 72 hours, read-out: Inhibition rate % A549; for IC50: secondary screening, 48 hours
Description: (§1) The assay used generally is the blue tetrazolium bromide (MTT) method. […] The amount of formazan can be detected by the microplate reader through the absorption value at 570 nm. The amount of formazan product generated is proportional to the number of living cells in the sample, so the OD value may reflect the number of living cells and the ability of a test drug to inhibit or kill cells. The MTT assay may be used in determining the ability of different compounds of the present invention to inhibit one or more cancer cells proliferation. Similar assays can be designed along the same lines for any cancer cell using techniques well known in the art.
(§2) The assay used generally is the blue tetrazolium bromide (MTT) method. […] Intracellular purple formazan salt crystals can be solved in DMSO and the absorption value at 570 nm is detected by the microplate reader, then the number of living cells can be detected indirectly. So MTT assay may be used to determine the ability of a compound of the present invention to inhibit cell proliferation. Similar assays can be designed along the same lines for any cancer cell using techniques well known in the art.
2.2.2 Human Non-Small Cell Lung Cancer Cell Line (A549)
(§3) The cells of the 2.2.1, 2.2.2, 2.2.3, 2.2.4, 2.2.5 cultured with RPMI 1640 containing 12% calf serum in the condition of 37° C., 5% CO2.
(§4) 2.3.1 Cell seeding: Trypsinize the cell by 0.05% trypsin-EDTA and add RPMI 1640 medium (DMEM or 5A) containing 12% calf serum. Count the number, then dilute to 1.67×10^4/ml. Add 180 ul/well to the 96 well plate (3000 cells/well).
(§5) 2.3.2 Culture: cells are incubated for 24 hours at 37° C. under 5% CO2.
(§6) 2.3.3 Preliminary screening: The compounds are firstly diluted to 0.1 mol/L with DMSO, and then diluted to three concentrations of 10^−5 mol/L, 10^−6 mol/L and 10^−7 mol/L. Add 20 ul test compounds to the 96 well plate and incubate for 72 hours. Each group has three parallel wells and all experiments repeat three times. Each inhibition ratio is calculated, then an average value of three times is taken as the measured value. 2.3.4 Staining 2.3.4.1 Attached cell: add 20 ul/well MTT to the 96-well plates; incubate for 4 hours in the incubator. Pour out the culture medium in the well and add 100 ul/well DMSO. Shake the plate for 5 min. 2.3.4.2 Suspension cell: add 20 ul/well MTT to the 96-well plates; incubate for 4 hours in the incubator. Add 50 ul/well 20% SDS and incubate for overnight in the incubator. 2.3.5 Reading the plates: read the absorbance A570-A630 with the Infinite M200 microtiter plate reader. Calculate the inhibition ratio of the test compounds. 2.3.6 Secondary screening: the compounds whose inhibition ratio is greater than 50% at the concentrations of 10^−5 mol/L in the preliminary screening will be picked out for Secondary screening. Dilute these compounds to ten concentrations: 10^−5 mol/L, 0.5×10^−5 mol/L, 10^−6 mol/L, 0.8×10^−6 mol/L, 0.6×10^−6 mol/L, 0.4×10^−6 mol/L, 0.2×10^−6 mol/L, 10^−7 mol/L, 0.8×10^−7 mol/L and 0.4×10^−7 mol/L. Add 20 ul test compound solution to the 96 well plate and incubate for 48 hours. Each group has three parallel wells and all experiments repeat for three times. Read the plates and calculate the inhibition ratio according to the preliminary screening method. 2.3.7 Calculate the Inhibition Ratio of Cell Proliferation and the IC50
(§7) According to the inhibition ratio of cell proliferation at the different concentrations of the compound, inhibition ratio of 50% of the test compound is calculated through the logarithm of the concentration of the compound with the Logit [I] linear regression, and an average value of three times is taken as the measured value of a sample.

[2] = test system: Human Pancreatic Carcinoma Cell Line (BXPC-3); experiment: Tumor cell proliferation assay (MTT), BXPC-3; conditions: for inhibition at 10 µM: concentration of 10^−5 mol/L, preliminary screening, 72 hours, read-out: Inhibition rate % BXPC-3; for IC50: secondary screening, 48 hours
Description: as §1, §2
2.2.6 Human Pancreatic Carcinoma Cell Line (BXPC-3);
The cells of 2.2.6, 2.2.7 cultured in RPMI 1640 medium containing 12% fetal bovine serum in the condition of 37° C., 5% CO2.
as §4, §5
as §6, with “2.3.6 Secondary screening: the compounds whose inhibition ratio is greater than 50% at the concentrations of 10^−5 mol/L in the preliminary screening will be picked out for Secondary screening.” left out
as §7

[3] = test system: Human Gastric Cancer Cell Line (BGC); experiment: Tumor cell proliferation assay (MTT), BGC; conditions: for inhibition at 10 µM: concentration of 10^−5 mol/L, preliminary screening, 72 hours, read-out: Inhibition rate % BGC; for IC50: secondary screening, 48 hours
Description: as §1, §2
2.2.1 Human Gastric Cancer Cell Line (BGC)
as §3, §4, §5, §6, §7

[4] = test system: Human Colon Cancer Cell Line (HT-29); experiment: Tumor cell proliferation assay (MTT), HT29; conditions: for inhibition at 10 µM: concentration of 10^−5 mol/L, preliminary screening, 72 hours, read-out: Inhibition rate % HT29; for IC50: secondary screening, 48 hours
Description: as §1, §2
2.2.11 Human Colon Cancer Cell Line (HT-29);
(§8) The cells of 2.2.11, 2.2.12, 2.2.13 were cultured in MC COYS 5-A medium containing 12% fetal bovine serum in the condition of 37° C., 5% CO2.
as §4, §5
as §6, with “2.3.6 Secondary screening: the compounds whose inhibition ratio is greater than 50% at the concentrations of 10^−5 mol/L in the preliminary screening will be picked out for Secondary screening.” left out
as §7

[5] = test system: Human Pancreatic Carcinoma Cells (PANC-1); experiment: Tumor cell proliferation assay (MTT), PANC-1; conditions: for inhibition at 10 µM: concentration of 10^−5 mol/L, preliminary screening, 72 hours, read-out: Inhibition rate % PANC-1; for IC50: secondary screening, 48 hours
Description: as §1, §2
2.2.4 Human Pancreatic Carcinoma Cells (PANC-1)
as §3, §4, §5, §6, §7

[6] = test system: Human Ovarian Cancer Cell Line (SK-OV-3); experiment: Tumor cell proliferation assay (MTT), SK-OV-3; conditions: for inhibition at 10 µM: concentration of 10^−5 mol/L, preliminary screening, 72 hours, read-out: Inhibition rate % SK-OV-3; for IC50: secondary screening, 48 hours
Description: as §1, §2
2.2.13 Human Ovarian Cancer Cell Line (SK-OV-3).
as §8, §4, §5, §6, §7

[7] = test system: Human Small Cell Lung Cancer Cell Line (NCI-H446); experiment: Tumor cell proliferation assay (MTT), NCI-H446; conditions: for inhibition at 10 µM: concentration of 10^−5 mol/L, preliminary screening, 72 hours, read-out: Inhibition rate % NCI-H446; for IC50: secondary screening, 48 hours
Description: as §1, §2
2.2.5 Human Small Cell Lung Cancer Cell Line (NCI-H446)
as §3, §4, §5, §6, §7

IC50 [1] [µM] | IC50 [2] [µM] | IC50 [3] [µM] | IC50 [4] [µM] | IC50 [5] [µM] | IC50 [6] [µM] | IC50 [7] [µM] | Structure (SMILES) | inhibition at 10 µM [1] [%] | inhibition at 10 µM [2] [%] | inhibition at 10 µM [3] [%] | inhibition at 10 µM [4] [%] | inhibition at 10 µM [5] [%] | inhibition at 10 µM [6] [%] | inhibition at 10 µM [7] [%]
3.73 | 1.89 | 2.92 | 4.36 | 1.81 | 2.17 | 2.98 | Cc1[nH]c2c(c1C(=O)NCC(O)CN1CCCC1)CCC/C2=C1/C(=O)Nc2ccc(Cl)cc21 (centres unmarked) [I-72, N-(2-hydroxy-3-(pyrrolidin-1-yl)propyl)-2-methyl-7-[1,2-dihydro-5-chloro-2-oxo-3H-indol-(Z)-3-ylidene]-4,5,6,7-tetrahydro-1H-indole-3-carboxamide] | 81.2 | 99.3 | 85.9 | 97.4 | 98.1 | 95.1 | 97.9
1.36 | 2.24 | 3.63 | 1.38 | 3.4 | 3.03 | 7.09 | Cc1[nH]c2c(c1C(=O)NCC(O)CN1CCN(C)CC1)CCC/C2=C1/C(=O)Nc2ccccc21 (centres unmarked) [I-76, N-[2-hydroxy-3-(4-methylpiperazin-1-yl)propyl]-2-methyl-7-[1,2-dihydro-2-oxo-3H-indol-(Z)-3-ylidene]-4,5,6,7-tetrahydro-1H-indole-3-carboxamide] | 64.5 | 97.5 | 74.2 | 92.1 | 80.1 | 90.3 | 64.6
– | 1.29 | 2.21 | 1.3 | – | 2.24 | 2.05 | CCN(CC)CC(O)CNC(=O)c1c(C)[nH]c2c1CCC/C2=C1/C(=O)Nc2ccc(F)cc21 (centres unmarked) [I-64, N-(3-(diethylamino)-2-hydroxypropyl)-2-methyl-7-[1,2-dihydro-5-fluoro-2-oxo-3H-indol-(Z)-3-ylidene]-4,5,6,7-tetrahydro-1H-indole-3-carboxamide] | – | 98.5 | 84.7 | 96.6 | – | 93.5 | 98.1
– | 7.68 | 4.26 | 6.9 | – | – | 9.42 | Cc1[nH]c2c(c1C(=O)NCC(O)CN1CCOCC1)CCC/C2=C1/C(=O)Nc2ccccc21 (centres unmarked) [I-67, N-(2-hydroxy-3-morpholinopropyl)-2-methyl-7-[1,2-dihydro-2-oxo-3H-indol-(Z)-3-ylidene]-4,5,6,7-tetrahydro-1H-indole-3-carboxamide] | – | 51.7 | 67.6 | 51.9 | 31.5 | 8.34 | 49.3
2.84 | 0.84 | 2.28 | 2.32 | 3.99 | 1.51 | 3.26 | Cc1ccc2c(c1)/C(=C1\CCCc3c1[nH]c(C)c3C(=O)NCC(O)CN(C)C1CCCCC1)C(=O)N2 (centres unmarked) [I-79, N-[3-(cyclohexyl(methyl)amino)-2-hydroxypropyl]-2-methyl-7-[1,2-dihydro-5-methyl-2-oxo-3H-indol-(Z)-3-ylidene]-4,5,6,7-tetrahydro-1H-indole-3-carboxamide] | 63.3 | 99 | 81 | 98.2 | 96.8 | 96 | –
– | – | – | – | – | – | – | Cc1[nH]c2c(c1C(=O)NCC(O)CN1CCOCC1)CCC/C2=C1/C(=O)Nc2ccc(Cl)cc21 (centres unmarked) [I-69, N-(2-hydroxy-3-morpholinopropyl)-2-methyl-7-[1,2-dihydro-5-chloro-2-oxo-3H-indol-(Z)-3-ylidene]-4,5,6,7-tetrahydro-1H-indole-3-carboxamide] | 18.9 | 39.9 | 30 | 34.9 | 22.4 | 2.8 | 25.3
– | – | 12.2 | – | – | – | – | Cc1[nH]c2c(c1C(=O)NCC(O)CN1CCN(C)CC1)CCC/C2=C1/C(=O)Nc2ccc(Cl)cc21 (centres unmarked) [I-78, N-[2-hydroxy-3-(4-methylpiperazin-1-yl)propyl]-2-methyl-7-[1,2-dihydro-5-chloro-2-oxo-3H-indol-(Z)-3-ylidene]-4,5,6,7-tetrahydro-1H-indole-3-carboxamide] | 29.9 | 31.7 | 48.5 | 24.2 | 21.8 | 20.2 | 8.07
– | 3.19 | 4.66 | 2.89 | – | 3.17 | 3.03 | Cc1[nH]c2c(c1C(=O)NCC(O)CN(C)C)CCC/C2=C1/C(=O)Nc2ccc(F)cc21 (centres unmarked) [I-66, N-(3-(dimethylamino)-2-hydroxypropyl)-2-methyl-7-[1,2-dihydro-5-fluoro-2-oxo-3H-indol-(Z)-3-ylidene]-4,5,6,7-tetrahydro-1H-indole-3-carboxamide] | – | 97.9 | 76.8 | 93 | – | 85.1 | 88.7
